Results as given in PubChem BioAssay (NCI).
Values joined by “and” are separate entries in the source; they are usually repeats but may differ in a detail not shown here. Equal values may be shown once.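 In this assay, cells in 96-well plates receive the compound at five concentrations for 48 hours. Endpoints are linearly interpolated between the surrounding concentrations. Here, GI50 denotes the concentration required for 50% inhibition of growth. At the TGI there is no net growth.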

Columns and labels:
Assay in all cases: NCI anticancer screen, dose series, 48 h
MDA-MB-231 breast = test system: MDA-MB-231 breast
OVCAR-4 ovarian = test system: OVCAR-4 ovarian
A549 NSCLC = test system: A549 NSCLC
K-562 leukemia = test system: K-562 leukemia
LOX IMVI melanoma = test system: LOX IMVI melanoma
A498 renal = test system: A498 renal
RXF 393 renal = test system: RXF 393 renal
TK-10 renal = test system: TK-10 renal
UO-31 renal = test system: UO-31 renal
SK-MEL-2 melanoma = test system: SK-MEL-2 melanoma

| Structure (SMILES) | GI50 (MDA-MB-231 breast) [µM] | TGI (MDA-MB-231 breast) [µM] | GI50 (OVCAR-4 ovarian) [µM] | TGI (OVCAR-4 ovarian) [µM] | GI50 (A549 NSCLC) [µM] | TGI (A549 NSCLC) | GI50 (K-562 leukemia) | TGI (K-562 leukemia) | GI50 (LOX IMVI melanoma) [µM] | TGI (LOX IMVI melanoma) [µM] | GI50 (A498 renal) [µM] | TGI (A498 renal) | GI50 (RXF 393 renal) | TGI (RXF 393 renal) | GI50 (TK-10 renal) [µM] | TGI (TK-10 renal) | GI50 (UO-31 renal) | TGI (UO-31 renal) | GI50 (SK-MEL-2 melanoma) | TGI (SK-MEL-2 melanoma) |
| --- | --- | --- | --- | --- | --- | --- | --- | --- | --- | --- | --- | --- | --- | --- | --- | --- | --- | --- | --- | --- |
| CO[C@H]1CC(O[C@@H]2/C(C)=C/C[C@@H]3C[C@@H](C[C@]4(CC[C@H](C)[C@@H](C5CCCCC5)O4)O3)OC(=O)[C@@H]3C=C(C)/C(=N/O)[C@H]4OC/C(=C\C=C\[C@@H]2C)[C@]43O)O[C@@H](C)C1O (stereo partly drawn) | 0.768 | 1.59 | 1.02 | 2.65 | 0.935 | 2.66 µM | 1.17 µM | 2.67 µM | 0.651 | 1.28 | 0.802 | 1.95 µM | 0.728 µM | 1.4 µM | 1.13 | 2.71 µM | 0.769 µM | 1.98 µM | 1.18 µM | 2.68 µM |
| CCCCCC/C=C\CCCCCCCCCC1=C(CN2CCN(C)CC2)C(=O)C=C(OC)C1=O | – | 25.9 | – | 3.8 | – | 28.6 µM | – | 6.32 µM | – | 9.79 | – | 32.6 µM | – | 6.72 µM | – | 9.4 µM | – | 9.2 µM | – | 18.7 µM |
| NS(=O)(=O)c1cc(C(=O)O)c(O)c2ccccc12 | – | > 100 | – | > 100 | – | > 100 µM | – | > 100 µM | – | > 100 | – | > 100 µM | – | > 100 µM | – | > 100 µM | – | > 100 µM | – | > 100 µM |
| O=C1/C(=C/c2ccc(Cl)cc2)CNC/C1=C\c1ccc(Cl)cc1 | – | > 100 | 1.52 | – | – | > 100 µM and 27.4 µM | 0.551 µM and 1.37 µM | 17.3 µM and > 100 µM | – | 4.02 | – | 5.01 µM and 25.6 µM | 1.64 µM and 3.97 µM | 3 µM and 7.85 µM | – | 25.9 µM and 12.3 µM | 1.62 µM and 3.48 µM | 2.98 µM and 6.5 µM | 4.92 µM and 14.5 µM | 28.4 µM and 43.2 µM |
| CCN(Cc1cccc(Cl)c1)c1ccc(CO)c(Cl)c1 | 12.9 | 30.2 | 0.505 | 9.87 | 2.47 | 17 µM | 1.65 µM | > 50 µM | 9.11 | 22.3 | 0.029 | 0.166 µM | 4.67 µM | 19.8 µM | 0.0588 | 0.321 µM | 3.55 µM | 17.6 µM | 3.86 µM | 20.8 µM |
| C=CCC(N[C@H](CO)c1ccccc1)c1cn(Cc2ccccc2Cl)c(=O)n(Cc2ccccc2Cl)c1=O (stereo partly drawn) | 3.74 | 21.5 | 26.6 | > 100 | 15.3 | > 100 µM | 6.78 µM | 40.7 µM | 6.27 | 19 | 11 | 39.1 µM | 8.48 µM | 23.6 µM | 46.6 | > 100 µM | 6.89 µM | > 100 µM | 18.9 µM | 57.5 µM |
| N#Cc1cnc(Nc2cc(NC[C@H]3CNCCO3)c(C(F)(F)F)cn2)cn1 | 13.1 | 47 | 10.5 | 82.7 | 20.6 | > 100 µM | 3.19 µM | 22.1 µM | 7.15 | 24.2 | 0.462 | 18 µM | 0.858 µM | 18.2 µM | 3.66 | 36 µM | 5.49 µM | 69.2 µM | 12.6 µM | 34.7 µM |
| CCc1nc2ccc(N=Nc3c(O)ccc4ccccc34)cc2[nH]1 | – | 49.5 | – | 28.4 | – | 55.8 µM | – | > 66.1 µM | – | 28.8 | – | 50.6 µM | – | 25.6 µM | – | 32.6 µM | – | 34.5 µM | – | 37.9 µM |
| CCCCCCCCCCCCOC1C(CNC(=O)C2OC3OC(C)(C)OC3C2NC(=O)CN2CCN(c3ccc(OC)cc3)CC2)OC2OC(C)(C)OC21 (stereo not drawn) | 5.65 | 17.8 | 3.83 | 15.8 | 3.18 | 18.2 µM | 3.31 µM | 11.2 µM | 3.71 | 12.3 | 7.96 | 20.3 µM | 2.1 µM | 4.44 µM | 3.96 | 13.4 µM | 3.36 µM | 13.4 µM | 11.7 µM | 23.9 µM |
| CC(=O)[C@H]1CCC/C=C/[C@@H]2C[C@H](O)C[C@H]2[C@H](O)/C=C/C(=O)O1 | 0.487 | 2.39 | 0.434 | > 22.2 | 1.17 | > 100 µM | 0.579 µM | > 100 µM | 0.212 | 0.633 | 0.118 | 1.37 µM | 0.236 µM | 0.742 µM | 0.398 | 3.17 µM | 0.296 µM | > 100 µM | 0.689 µM | 2.91 µM |
| Oc1c(Cl)cc(Cl)c2ccc(Cn3cc(-c4ccc(C(F)(F)F)cc4)nn3)nc12 | 2.19 | 6.81 | 1.43 | 3.37 | 16.5 | 38.6 µM | 0.479 µM | > 100 µM | 0.299 | 1.11 | 3.57 | 13.8 µM | 0.402 µM | 1.79 µM | 1.95 | 4.22 µM | 1.36 µM | 3.62 µM | 2.67 µM | 7.65 µM |
| Cc1cc(-c2cc(O)ccc2Cl)cc2nnc(Nc3ccc(OCCN4CCCC4)cc3)nc12 | 0.299 | 0.967 | 0.615 | 1.3 | 1.36 | 3.48 µM | 0.0443 µM | 0.245 µM | 1.57 | 3.25 | 1.41 | 2.92 µM | 1.2 µM | 2.61 µM | 1.39 | 3 µM | 1.3 µM | 2.73 µM | 1.7 µM | 3.64 µM |
| COc1cc(C2c3cc4c(cc3C(OC(=O)C[n+]3ccccc3)C3COC(=O)C23)OCO4)cc(OC)c1OC (stereo not drawn) | < 0.0214 | > 22.4 | < 0.0239 | > 100 | < 0.0197 | > 100 µM | < 0.0173 µM | > 100 µM | < 0.0179 | > 100 | < 0.01 | 15.8 µM | < 0.0191 µM | > 100 µM | > 100 | > 100 µM | < 0.0231 µM | > 100 µM | < 0.01 µM | > 100 µM |
| C#CCN(c1ccc(C(=O)N[C@@H](CCC(=O)N[C@H](CCC(=O)O)C(=O)O)C(=O)O)cc1)C1CCc2cc3nc(CO)[nH]c(=O)c3cc21 (stereo partly drawn) | > 100 | > 100 | > 100 | > 100 | 5.41 | > 100 µM | > 100 µM | > 100 µM | 5.12 | > 100 | – | > 100 µM | 63.8 µM | > 100 µM | > 100 | > 100 µM | 3.74 µM | > 100 µM | > 100 µM | > 100 µM |
| Clc1ccccc1-c1nnc2c(Cc3ccccc3)nc3ccccc3n12 | 7.09 | > 100 | 5.55 | > 100 | 8.78 | > 100 µM | 5.55 µM | > 100 µM | 3.5 | > 100 | 1.21 | > 100 µM | 3.29 µM | > 100 µM | 54 | > 100 µM | > 50 µM | > 100 µM | 59.4 µM | > 100 µM |
| CC1=CC(C)(C)NN1C1=NS(=O)(=O)c2ccccc2N1C | – | > 100 | – | > 100 | – | > 100 µM | – | > 100 µM | – | > 100 | – | > 100 µM | – | > 100 µM | – | > 100 µM | – | > 100 µM | – | > 100 µM |
| Cn1cc(-c2cnn3c(N)c(Br)c(C4CCCNC4)nc23)cn1 (stereo not drawn) | 5.53 | 40 | 14.6 | 96.1 | 17.3 | > 100 µM | 3.85 µM | > 100 µM | 2.71 | 18.9 | 0.238 | 2 µM | 0.257 µM | 0.799 µM | 3.69 | > 83 µM | 4.63 µM | > 78.3 µM | 17.1 µM | 63.7 µM |
| O=C1C=CC(=O)c2c(O)c3c(c(O)c21)C[C@H](O)[C@H](O)[C@@H]3O | – | 6.08 | – | 3.45 | – | 9.39 µM | – | > 21.2 µM | – | 4.08 | – | 13.3 µM | – | 3.43 µM | – | 3.27 µM | – | > 24 µM | – | 3.43 µM |
| COC(=O)c1cc2c3ccccc3n3c2c(n1)-c1[nH]c2ccccc2c(=O)c1C3 | 33.7 | > 100 | > 100 | > 100 | > 100 | > 100 µM | > 100 µM | > 100 µM | > 100 | > 100 | 27 | 73.7 µM | 16.3 µM | 66.9 µM | 23 | 45.9 µM | > 100 µM | > 100 µM | 36.4 µM | > 100 µM |
| CCCCCCCC/C=C/CCCCCCCC1=NC(C)(C)CN1CCO | 1.72 | 3.69 | 2.8 | 8.59 | 1.91 | 3.56 µM | 1.3 µM | 3.02 µM | 1.55 | 2.95 | 2.64 | 16.8 µM | 2.02 µM | 4.37 µM | 1.91 | 3.94 µM | 2.18 µM | 6.85 µM | 1.86 µM | 3.49 µM |
